This note sets out measurements from ChEMBL document CHEMBL3132789, “Effect of the 4-substituted phenylalanine moiety of sansalvamide A peptide on antitumor activity” (Medchemcomm, 2014).

In series [1] the test system is HCT-15. The series is described as follows: Cytotoxicity against human HCT15 cells assessed as growth inhibition at 20 ug/ml after 72 hrs by [3H]-thymidine uptake assay. In kind it is functional. Conditions: read-out: GI.
For series [2], the system named is K562. The series is described as follows: Cytotoxicity against human K562 cells assessed as growth inhibition at 20 ug/ml after 72 hrs by [3H]-thymidine uptake assay. In kind it is functional. Conditions: read-out: GI.
For series [3], the system named is HT-29. Kind of series: Cytotoxicity against human HT-29 cells assessed as growth inhibition at 20 ug/ml after 72 hrs by [3H]-thymidine uptake assay. In kind it is functional. As to conditions: read-out: GI.
The test system of series [4] is A549. Kind of series: Cytotoxicity against human A549 cells assessed as growth inhibition at 20 ug/ml after 72 hrs by [3H]-thymidine uptake assay. In kind it is functional. Conditions: read-out: GI.
Series [5] relates to MDA-MB-231. The series is described as follows: Cytotoxicity against human MDA-MB-231 cells assessed as growth inhibition at 20 ug/ml after 72 hrs by [3H]-thymidine uptake assay. In kind it is functional. Conditions: read-out: GI.
Another series deals with HCT-116. The series is described as follows: Cytotoxicity against human HCT116 cells after 72 hrs by [3H]-thymidine uptake assay. In kind it is functional, cell-based.
Series [6] relates to A549. Kind of series: Cytotoxicity against human A549 cells assessed as growth inhibition at 2 ug/ml after 72 hrs by [3H]-thymidine uptake assay. In kind it is functional. Conditions: read-out: GI.
Series [7] relates to HT-29. Kind of series: Cytotoxicity against human HT-29 cells assessed as growth inhibition at 2 ug/ml after 72 hrs by [3H]-thymidine uptake assay. Conditions: read-out: GI. In kind it is functional.
Series [8] has as its system A549. Kind of series: Cytotoxicity against human A549 cells after 72 hrs by [3H]-thymidine uptake assay. In kind it is functional, cell-based.
In series [9] the test system is HCT-15. Kind of series: Cytotoxicity against human HCT15 cells after 72 hrs by [3H]-thymidine uptake assay. In kind it is functional, cell-based.
Series [10] deals with K562. Kind of series: Cytotoxicity against human K562 cells assessed as growth inhibition at 2 ug/ml after 72 hrs by [3H]-thymidine uptake assay. In kind it is functional. As to conditions: read-out: GI.
Series [11] relates to HeLa. Kind of series: Induction of apoptosis in human HeLa cells assessed as membrane blebbing and nuclear fragmentation at 1.8 ug/ml after 24 hrs by light microscopy analysis. In kind it is functional, cell-based.
In series [12] the test system is HCT-15. The series is described as follows: Cytotoxicity against human HCT15 cells assessed as growth inhibition at 2 ug/ml after 72 hrs by [3H]-thymidine uptake assay. Conditions: read-out: GI. In kind it is functional.
Series [13] deals with K562. The series is described as follows: Cytotoxicity against human K562 cells after 72 hrs by [3H]-thymidine uptake assay. In kind it is functional, cell-based.
Series [14] relates to HeLa. The series is described as follows: Cytotoxicity against human HeLa cells assessed as growth inhibition at 2 ug/ml after 72 hrs by [3H]-thymidine uptake assay. In kind it is functional. As to conditions: read-out: GI.
Series [15] deals with HeLa. Kind of series: Cytotoxicity against human HeLa cells after 72 hrs by [3H]-thymidine uptake assay. In kind it is functional, cell-based.
Series [16] has as its system MDA-MB-231. The series is described as follows: Cytotoxicity against human MDA-MB-231 cells after 72 hrs by [3H]-thymidine uptake assay. In kind it is functional, cell-based.
The subject of series [17] is MDA-MB-231. Kind of series: Cytotoxicity against human MDA-MB-231 cells assessed as growth inhibition at 2 ug/ml after 72 hrs by [3H]-thymidine uptake assay. In kind it is functional. As to conditions: read-out: GI.
Series [18] is described as follows: Induction of apoptosis in human VSMC cells assessed as morphological changes at 1.8 ug/ml after 24 hrs by light microscopy analysis. In kind it is cell-based.
In series [19] the test system is HeLa. The series is described as follows: Induction of apoptosis in human HeLa cells assessed as decrease in cell density at 1.8 ug/ml after 24 hrs by light microscopy analysis. In kind it is functional, cell-based.
Series [20] concerns HT-29. The series is described as follows: Cytotoxicity against human HT-29 cells after 72 hrs by [3H]-thymidine uptake assay. In kind it is functional, cell-based.
Series [21] relates to HeLa. The series is described as follows: Induction of apoptosis in human HeLa cells assessed as rounded and smaller cells at 1.8 ug/ml after 24 hrs by light microscopy analysis. In kind it is functional, cell-based.

The structures appear in SMILES notation. pIC50: −log10 of the molar value. ≈ marks a conversion by molar mass, not a printed value. Calls of active or inactive are those of the source. No cut-off for these calls is given here. Square brackets hold non-standard residues; d marks the D form. Peptide text beside a SMILES is read from it. Phe(4-Br) = N[C@@H](Cc1ccc(Br)cc1)C(=O)O; Phe(4-Cl) = N[C@@H](Cc1ccc(Cl)cc1)C(=O)O; Phe(4-F) = N[C@@H](Cc1ccc(F)cc1)C(=O)O; Phe(4-I) = N[C@@H](Cc1ccc(I)cc1)C(=O)O; Hica(2S) = CC(C)C[C@H](O)C(=O)O

The IC50 is the midpoint of a concentration-inhibition curve. A lower IC50 goes with greater potency. Consider `CC(C)C[C@@H]1NC(=O)[C@H](Cc2ccccc2)NC(=O)[C@H](CC(C)C)NC(=O)[C@H](C(C)C)NC(=O)[C@H](CC(C)C)NC1=O` (cyclo(FLLVL)), for which the inhibition of growth at 20 µg/mL in the series with HCT-15 [1] is 23.1%; with K562 [2] it was 45.3%; with HT-29 [3] it was 21.5%; in the series on A549 [4], 26.6%; with MDA-MB-231 [5], 23.6%. The same compound showed an IC50 in the series with HCT-116 of 0.98 µg/mL (≈ 1.67 µM).

Take `CC(C)C[C@@H]1NC(=O)[C@H](C(C)C)NC(=O)[C@H](CC(C)C)OC(=O)[C@H](CC(C)C)NC(=O)[C@H](Cc2ccccc2)NC1=O` (cyclo(FL[Hica(2S)]VL)): the IC50 with HCT-116 was found to be 9.8 µg/mL (≈ 16.7 µM).

The pIC50 is the IC50 on a negative log10 scale, so that one unit is a factor of ten. Turning to `COc1ccc(C[C@@H]2NC(=O)[C@H](CC(C)C)NC(=O)[C@H](C(C)C)NC(=O)[C@H](CC(C)C)NC(=O)[C@H](CC(C)C)NC2=O)cc1` (cyclo(LLVLY(Me))), the inhibition of growth at 2 µg/mL is 91.3% in the series with A549 [6]; 76.4% in the series with HT-29 [7]; 86.5% in the series on K562 [10]; 78.8% in the series with HCT-15 [12]; 50.9% in the series on HeLa [14]; 40.5% in the series on MDA-MB-231 [17]. Also, the inhibition of growth at 20 µg/mL in the series with HCT-15 [1] was found to be 80.8%; in the series on K562 [2], 93.8%; in the series with HT-29 [3], 88.5%; with A549 [4], 98.2%; with MDA-MB-231 [5], 43.2%. Moreover, the pIC50 with A549 [8] was 5.62; in the series with HCT-15 [9], 5.45; in the series on K562 [13], 5.54; in the series with HeLa [15], 5.49; in the series with MDA-MB-231 [16], 4.96; in the series on HT-29 [20], 5.47. Moreover, the outcome with HeLa [11], in the series with HeLa [19] and in the series with HeLa [21] was Active. Besides, the Activity entry in series [18] was “Non-toxic”.

For the compound `CC(C)C[C@@H]1NC(=O)[C@H](Cc2ccc(O)cc2)NC(=O)[C@H](CC(C)C)NC(=O)[C@H](C(C)C)NC(=O)[C@H](CC(C)C)NC1=O` (cyclo(LLVLY)), the inhibition of growth at 20 µg/mL turned out to be 52% with HCT-15 [1], 34.6% with HT-29 [3] and 42.5% with MDA-MB-231 [5].

Turning to `CC(C)C[C@@H]1NC(=O)[C@H](Cc2ccc(Cl)cc2)NC(=O)[C@H](CC(C)C)NC(=O)[C@H](C(C)C)NC(=O)[C@H](CC(C)C)NC1=O` (cyclo(LLVL[Phe(4-Cl)])), the inhibition of growth at 20 µg/mL worked out at 1.21% with HCT-15 [1]; 3.57% in the series with K562 [2]; 1.23% in the series with HT-29 [3]; 5.2% in the series with A549 [4]; 15% with MDA-MB-231 [5].

Turning to `CC(C)C[C@@H]1NC(=O)[C@H](Cc2ccc(F)cc2)NC(=O)[C@H](CC(C)C)NC(=O)[C@H](C(C)C)NC(=O)[C@H](CC(C)C)NC1=O` (cyclo(LLVL[Phe(4-F)])), the inhibition of growth at 20 µg/mL in the series with HCT-15 [1] worked out at 21%; in the series on K562 [2] it was 58.2%; in the series on HT-29 [3], 0%; in the series with A549 [4], 30.8%; with MDA-MB-231 [5] it was 12.3%.

Turning to `CC(C)C[C@@H]1NC(=O)[C@H](Cc2ccc(I)cc2)NC(=O)[C@H](CC(C)C)NC(=O)[C@H](C(C)C)NC(=O)[C@H](CC(C)C)NC1=O` (cyclo(LLVL[Phe(4-I)])), the IC50 in the series on HCT-116 was determined as 1.12 µg/mL (≈ 1.57 µM).

Regarding `CC(C)C[C@@H]1NC(=O)[C@H](C(C)C)NC(=O)[C@H](CC(C)C)OC(=O)[C@H](CC(C)C)NC(=O)[C@H](Cc2ccc(Br)cc2)NC1=O` (cyclo(L[Phe(4-Br)]L[Hica(2S)]V)), the IC50 in the series with HCT-116 came to 4.5 µg/mL (≈ 6.76 µM).

Compound `CC(C)C[C@@H]1NC(=O)[C@H](C(C)C)NC(=O)[C@H](CC(C)C)OC(=O)[C@H](CC(C)C)NC(=O)[C@H](Cc2ccc(I)cc2)NC1=O` (cyclo(L[Phe(4-I)]L[Hica(2S)]V)) showed an IC50 with HCT-116 of 11.3 µg/mL (≈ 15.9 µM).

Take `CC(C)C[C@@H]1NC(=O)[C@H](Cc2ccc(Br)cc2)NC(=O)[C@H](CC(C)C)NC(=O)[C@H](C(C)C)NC(=O)[C@H](CC(C)C)NC1=O` (cyclo([Phe(4-Br)]LLVL)): the inhibition of growth at 20 µg/mL in the series with HCT-15 [1] came out at 74.3%; in the series with HT-29 [3], 80.2%; in the series with MDA-MB-231 [5], 89.3%. Moreover, in the series with HCT-116, it took 0.58 µg/mL (≈ 0.873 µM) to reach half-maximal inhibition (IC50).
